In patent US8809268B2, “Combination therapy to combat helminth resistance” (The Regents of The University of California, priority 2008, dated 2014):
Converted amounts (≈) assume the structure as drawn. “And” between values parts separate entries of the source, which are not always exact repeats. Identical values can stand only once. Like-named read-outs stand apart in the source and are kept apart here.

Legend:
C. elegans [1] = assay: Visual assay on tribendimidine, levamisole or pyrantel plates; conditions: tribendimidine and levamisole plates 100 μg/ml, pyrantel 100 mM stock 1:50 in agar
Procedure: Tribendimidine plates: stock solution (4 mg/ml) in water was prepared and added into standard C. elegans NG agar media (2.5 ml/100 ml) to a final concentration of 100 μg/ml. The mixture was poured into 35 mm plates (4 ml/plate). The plates were stored up to one week at 4° C. The plates were spread with OP50, a laboratory strain of E. coli commonly used as a food source for C. elegans. Resistant=good health and motility; susceptible=contracted, pale color, move slowly.

C. elegans [2] = assay: Developmental assay on Cry14A dose response plates +/- levamisole; format: in vivo, Caenorhabditis elegans; conditions: N2 wild-type, levamisole 0.75 μg/ml
Procedure: Similar experiments with a strain that produces Cry14A, alone and in combination with levamisole were performed. […] The Bt strain used in these experiments expressed Cry14A and two insecticidal Cry proteins (Cry34A and Cry35A) that are not expected to affect nematodes. […] To confirm this conclusion, an independent test of synergy between levamisole and Cry14A was carried out. In these experiments, N2 wild-type worms were plated onto Cry14A plates+/−levamisole.

wild-type C. elegans = format: in vivo, Caenorhabditis elegans
C. elegans [3] = assay: whole plant or invertebrate; conditions: for LC50: 6 days at 25° C.; for viability of trb mutant nematodes at concentrations where most or all wild-type nematodes were dead: tribendimidine: trb-1 to trb-4, 100 μg/ml and greater, levamisole: trb-1, trb-2, trb-4, 1000 μM or greater
Procedure: LC50 assays determine the inhibitory concentration at which 50% of the nematodes are dead under certain conditions as calculated using the PROBIT algorithm. LC50 assays start with wild-type (N2) L4 nematodes. To get L4 nematodes, synchronous L1-staged nematodes (as per developmental assay) were plated onto OP50-seeded ENG plates (see below) and put at 20° for 44 h. The now L4-staged larvae were then washed off with water, spun down at 1800 rpm for 40 seconds, re-suspended with SS Media, spun again, and re-suspended in special SS Media to a concentration of 4 nematodes/μl. The assay was set up in a 48-well microtiter plate. Each well contained: 5 μl L4 nematodes (˜20 total), 40 μl of OP50 bacteria as a food source (see below for preparation), 20 μl of tribendimidine (prepared as below), 5 μl of FUdR (8 mM stock; see below), and SS Medium for a total of 200 μl. Each well was set up in triplicate. The plates were wrapped in moist paper towels, placed in a covered plastic box, and incubated at 25° C. for 6 days. The plates were then removed from the incubator and the nematodes transferred with a glass pipette into the well of a spot glass. Each nematode was then scored for dead or alive as follows. Using a thin platinum wire, each nematode was touched to see if it moved within 10 seconds of being touched. If it moved, it was scored as alive. If not, the touch was repeated a second time. If it moved after the second touch, it was scored as alive. […] The number of alive and dead nematodes was tallied for each well. The data from triplicate wells were combined into a single data point. The experiment was repeated for a total of three times on three different days (so a total of 9 wells per data point).
A tribendimidine stock solution was prepared at 4 mg/ml at 1% DMSO in SS Media (final concentration in the well will be 0.1% DMSO). 1% DMSO in SS Media was used as a dilutant to set up serial dilutions. For example, tube 1 contained 160 μl of 4 mg/ml Trib in 1% DMSO. Tube 2 contained 80 μl of the solution in Tube 1, diluted with 80 μl 1% DMSO (1:1 dilution; tube 2). Tube 3 contained 80 μl of the solution from Tube 2, diluted with 80 microliters 1% DMSO, etc. . . .
The trb mutant nematodes were isolated in the forward genetic screen for tribendimidine resistance described above. The LC50 assay was performed as previously described. A levamisole stock solution (100 mM stock) was prepared in water. Dilutions (2-fold) were made in SS Media accordingly such that 20 μl aliquots were added per well to give rise to the desired concentration.

C. elegans [4] = assay: whole plant or invertebrate; format: in vivo, Caenorhabditis elegans; conditions: for IC50: Caenorhabditis elegans, 60 h
C. elegans [5] = assay: Brood size assay; format: in vivo, Caenorhabditis elegans; conditions: bre-5 mutant vs wild-type, 200 μg/ml tribendimidine, P<0.01
Procedure: L4 staged worms were used. One worm was picked up with an eyelash pick and placed in SS Media in a 48-well plate. […] The total volume was 200 μl. Each drug concentration was repeated in triplicate. The plates were incubated for 64 h at 25° C. The progeny were then transferred out of the well with a pipette onto an empty NG agar plate for counting. The experiment was repeated a total of three times.

[6] = trb-1, trb-2, trb-3, trb-4 mutants
[7] = combination of Cry5B and nAChR agonist, 1:1 ratio (μg/ml)
[8] = combination of Cry6A and levamisole
[9] = combination of Cry21A and levamisole, 3 days at 20° C.
[10] = combination of levamisole and Bt strain producing Cry14A (also Cry34A, Cry35A)
[11] = Caenorhabditis elegans, 144 h, bre-2 mutant (Cry5B-resistant)
[12] = Caenorhabditis elegans, 144 h, bre-5 (ye17) mutant (Cry5B-resistant)
[13] = Caenorhabditis elegans, 144 h, wild-type (N2), L4 nematodes

Structure (SMILES) | appearance of nematodes on drug plates (C. elegans [1]; [6]) | appearance of nematodes on drug plates (C. elegans [1]; wild-type) | synergism factor (CI value) at ED75 (wild-type C. elegans; [7]) | synergism factor (CI value) at ED90 (wild-type C. elegans; [7]) | synergism factor (CI value) at ED95 (wild-type C. elegans; [7]) | LC50 (C. elegans [3]; [11]) [µg/mL] | LC50 (C. elegans [3]; [12]) [µg/mL] | LC50 (C. elegans [3]; [13]) [µg/mL] | viability of trb mutant nematodes at concentrations where most or all wild-type nematodes were dead (C. elegans [3]) | LC50 (C. elegans [3]; wild-type (N2), L4 nematodes) | further results
c1ccc([C@H]2CN3CCSC3=N2)cc1 [Levamisole] | resistant | sick | 0.29 | 0.22 | 0.19 | 1.16 (≈ 5.68 µM) | 9.99 (≈ 48.9 µM) | 19.6 (≈ 96 µM) | mostly or all alive | 11.712 µg/mL (≈ 57.3 µM) | effect of levamisole alone on worm development (C. elegans [2]): does not inhibit worm development; synergism factor (CI value) at ED75 (wild-type C. elegans; [8]): 0.96; synergism factor (CI value) at ED90 (wild-type C. elegans; [8]): 0.86; synergism factor (CI value) at ED95 (wild-type C. elegans; [8]): 0.82; synergism factor (CI value) at ED75 (wild-type C. elegans; [9]): 0.52; synergism factor (CI value) at ED90 (wild-type C. elegans; [9]): 0.42; synergism factor (CI value) at ED95 (wild-type C. elegans; [9]): 0.37; synergism factor (CI value) at ED75 (wild-type C. elegans; [10]): 0.60; synergism factor (CI value) at ED90 (wild-type C. elegans; [10]): 0.50; synergism factor (CI value) at ED95 (wild-type C. elegans; [10]): 0.44; % alive (C. elegans [3]; trb-3(ye494) nematodes at 1 mM (1000 μM) levamisole): > 40%
CN1CCCN=C1/C=C/c1cccs1 [Pyrantel] | resistant | sick | 0.74 | 0.73 | 0.72 | 10.9 (≈ 52.7 µM) | 114 (≈ 553 µM) | 502 (≈ 2430 µM) | – | 594.956 µg/mL (≈ 2880 µM) | –
C/C(=N\c1ccc(/N=C/c2ccc(/C=N/c3ccc(/N=C(\C)N(C)C)cc3)cc2)cc1)N(C)C [Tribendimidine] | resistant | sick | 0.28 | 0.19 | 0.14 | 7.27 (≈ 16.1 µM) | 12.3 (≈ 27.2 µM) | 54.4 (≈ 120 µM) | mostly or all alive | 58.372 µg/mL and 57.38 µg/mL | IC50 (C. elegans [4]; read-out: IC50 (inhibitory concentration at which 50% of the larvae are unable to complete development), wild-type (N2), L1 larvae, 60 h at 20° C.): 18.4 µg/mL (≈ 40.6 µM); IC50 (C. elegans [4]; read-out: IC50 (larval development), bre-5 (ye17) mutant (Cry5B-resistant), 60 h at 20° C.): 13.2 µg/mL (≈ 29.1 µM); IC50 (inhibitory concentration at which 50% of the larvae are unable to complete development) (C. elegans [4]; wild-type (N2), L1 larvae, 60 h at 20° C.): 14.718 µg/mL; brood size, mutant relative to wild-type (C. elegans [5]): reduced significantly; response of levamisole-resistant mutants in LC50 assay (C. elegans [3]; mutants in 11 levamisole resistance genes (lev-1, lev-8, lev-9, lev-10, lev-11, unc-22, unc-29, unc-38, unc-50, unc-63, unc-74), high concentrations): resistant to tribendimidine
